Assay results from patent US20080280879A1, “SUBSTITUTED HETEROCYCLIC DERIVATIVES AND THEIR PHARMACEUTICAL USE AND COMPOSITIONS” (priority 2007, published 2008).
≈ marks a conversion by molar mass, not a printed value.

Tests used:
Format in all cases: cell-based, Staphylococcus aureus
[1] = test system: Staph aureus 2812; assay: MIC, microtiter broth dilution (CLSI M7-A7), Assay 1, Table 12 column E, no serum; details: for MIC: Staphylococcus aureus, 2812, Staph aureus 2812, Assay 1, no serum; for MIC, column E: Staph aureus 2812, Assay 1, no serum
Summary of the method: (§1)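 CLSI microdilution (M7-A7; M100-S16 interpretation); DMSO stocks at 10 mg/ml; endpoint = no macroscopically visible growth; MIC μg/ml, geometric mean if run more than once.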

[2] = test system: Staph aureus 2811; assay: MIC, microtiter broth dilution (CLSI M7-A7), Assay 1, Table 12 column D, no serum; details: for MIC: Staphylococcus aureus, 2811, Staph aureus 2811, Assay 1, no serum; for MIC, column D: Staph aureus 2811, Assay 1, no serum
Summary of the method: as §1

[3] = test system: Staph aureus 1095 MRSA; assay: MIC, microtiter broth dilution (CLSI M7-A7), Assay 1, Table 12 column A, no serum; details: Assay 1, no serum; for MIC: Staphylococcus aureus, MRSA
Summary of the method: as §1

[4] = test system: Staph aureus 1146; assay: MIC, microtiter broth dilution (CLSI M7-A7), Assay 1, Table 12 column B, no serum; details: for MIC: Staphylococcus aureus, 1146, Staph aureus 1146, Assay 1, no serum; for MIC, column B: Staph aureus 1146, Assay 1, no serum
Summary of the method: as §1

[5] = test system: Staph aureus 1146; assay: MIC in Mueller-Hinton Broth with 50% pooled inactivated human serum, Assay 1, Table 12; details: for MIC: Staphylococcus aureus, 1146, Staph aureus 1146, Assay 1, 50% human serum, read-out: MIC, column C; for MIC, column C: Staph aureus 1146, Assay 1, 50% human serum
Summary of the method: as §1

Row | MIC [1] [µg/mL] | MIC [2] [µg/mL] | MIC [3] [µg/mL] | MIC [4] [µg/mL] | MIC [5] [µg/mL] | MIC, column E [1] [µg/mL] | MIC, column D [2] [µg/mL] | MIC, column A [3] [µg/mL] | MIC, column B [4] [µg/mL] | MIC, column C [5] [µg/mL] | SMILES
1 | < 0.0625 | < 0.0625 | < 0.0625 | < 0.0625 | 1 (≈ 1.89 µM) | – | – | – | – | – | COc1ccc2ncc(F)c(C(O)CC[C@@H]3CCN([C@H]4C[C@H](c5c(F)cccc5F)C4)C[C@@H]3C(=O)O)c2c1 (stereo partly drawn) [Example 215, (3R,4R)-1-[trans-3-(2,6-difluorophenyl)cyclobutyl]-4-[3-(3-fluoro-6-methoxyquinolin-4-yl)-3-hydroxypropyl] piperidine-3-carboxylic acid]
2 | 32 (≈ 61.8 µM) | 8 (≈ 15.5 µM) | > 64 | 16 (≈ 30.9 µM) | 64 (≈ 124 µM) | – | – | – | – | – | COc1ccc2nccc([C@@H](O)CC[C@@H]3CCN(C4CC(c5ccc(F)c(C#N)c5)C4)C[C@@H]3C(=O)O)c2c1 (stereo partly drawn) [Example 216, (3R,4R)-1-[3-(3-cyano-4-fluorophenyl)cyclobutyl]-4-[(3S)-3-hydroxy-3-(6-methoxyquinolin-4-yl)propyl] piperidine-3-carboxylic acid]
3 | – | – | – | – | – | 0.0600 (≈ 0.113 µM) | 0.125 (≈ 0.236 µM) | 0.125 (≈ 0.236 µM) | 0.0600 (≈ 0.113 µM) | 2.00 (≈ 3.78 µM) | COc1ccc2ncc(F)c(C(O)CC[C@@H]3CCN(C4CC(c5cc(F)ccc5F)C4)C[C@@H]3C(=O)O)c2n1 (stereo partly drawn) [Example 217, (3R,4R)-1-[3-(2,5-difluorophenyl)cyclobutyl]-4-[3-(3-fluoro-6-methoxy-1,5-naphthyridin-4-yl)-3-hydroxypropyl]piperidine-3-carboxylic acid]
4 | – | – | – | – | – | <0.0625 | <0.0625 | 0.125 (≈ 0.236 µM) | <0.0625 | 2.00 (≈ 3.78 µM) | COc1ccc2ncc(F)c(C(O)CC[C@@H]3CCN(C4CC(c5cc(F)ccc5F)C4)C[C@@H]3C(=O)O)c2n1 (stereo partly drawn) [Example 218, (3R,4R)-1-[3-(2,5-difluorophenyl)cyclobutyl]-4-[3-(3-fluoro-6-methoxy-1,5-naphthyridin-4-yl)-3-hydroxypropyl]piperidine-3-carboxylic acid]
5 | < 0.0625 | < 0.0625 | 0.25 (≈ 0.472 µM) | < 0.0625 | 2 (≈ 3.78 µM) | – | – | – | – | – | COc1ccc2ncc(F)c(C(O)CC[C@@H]3CCN(C4CC(c5cc(F)cc(F)c5)C4)C[C@@H]3C(=O)O)c2n1 (stereo partly drawn) [Example 222, (3R,4R)-1-[3-(3,5-difluorophenyl)cyclobutyl]-4-[3-(3-fluoro-6-methoxy-1,5-naphthyridin-4-yl)-3-hydroxypropyl]piperidine-3-carboxylic acid]

The next lines start with the compound.

Row | SMILES | MIC [1] [µg/mL] | MIC [2] [µg/mL] | MIC [3] [µg/mL] | MIC [4] [µg/mL] | MIC [5] [µg/mL] | MIC, column E [1] [µg/mL] | MIC, column D [2] [µg/mL] | MIC, column A [3] [µg/mL] | MIC, column B [4] [µg/mL] | MIC, column C [5] [µg/mL]
6 | COc1ccc2ncc(Cl)c(CCCC3(C(=O)O)CCN(C4CC(c5cc(F)ccc5F)C4)C3)c2c1 (stereo not drawn) [Example 207, 3-[3-(3-chloro-6-methoxyquinolin-4-yl)propyl]-1-[3-(2,5-difluorophenyl)cyclobutyl] pyrrolidine-3-carboxylic acid] | < 0.0625 | < 0.0625 | < 0.0625 | < 0.0625 | 64 (≈ 124 µM) | – | – | – | – | –
7 | COc1ccc2nccc([C@@H](O)CC[C@@H]3CCN(C4CC(c5cccc(OC)c5F)C4)C[C@@H]3C(=O)O)c2c1 (stereo partly drawn) [Example 208, (3R,4R)-1-[3-(2-fluoro-3-methoxyphenyl)cyclobutyl]-4-[(3S)-3-hydroxy-3-(6-methoxyquinolin-4-yl)propyl]piperidine-3-carboxylic acid] | 64 (≈ 122 µM) | 32 (≈ 61.2 µM) | 64 (≈ 122 µM) | 32 (≈ 61.2 µM) | > 64 | – | – | – | – | –
8 | COc1ccc2ncc(Cl)c(C(O)CC[C@@H]3CCN(C4CC(c5cc(F)ccc5F)C4)C[C@@H]3C(=O)O)c2c1 (stereo partly drawn) [Example 209, (3R,4R)-4-[3-(3-chloro-6-methoxyquinolin-4-yl)-3-hydroxypropyl]-1-[3-(2,5-difluorophenyl)cyclobutyl]piperidine-3-carboxylic acid] | – | – | – | – | – | <0.0625 | <0.0625 | <0.0625 | <0.0625 | 1.00 (≈ 1.83 µM)
9 | COc1ccc2ncc(Cl)c(C(O)CC[C@@H]3CCN(C4CC(c5cc(F)ccc5F)C4)C[C@@H]3C(=O)O)c2c1 (stereo partly drawn) [Example 210, (3R,4R)-4-[3-(3-chloro-6-methoxyquinolin-4-yl)-3-hydroxypropyl]-1-[3-(2,5-difluorophenyl)cyclobutyl]piperidine-3-carboxylic acid] | – | – | – | – | – | <0.0625 | <0.0625 | <0.0625 | <0.0625 | 16.0 (≈ 29.4 µM)
10 | COc1ccc2ncc(Cl)c(C(O)CC[C@@H]3CCN(C4CC(c5ccccc5)C4)C[C@@H]3C(=O)O)c2c1 (stereo partly drawn) [Example 211, (3R,4R)-4-[3-(3-chloro-6-methoxyquinolin-4-yl)-3-hydroxypropyl]-1-(3-phenylcyclobutyl)piperidine-3-carboxylic acid] | – | – | – | – | – | <0.0625 | <0.0625 | <0.0625 | <0.0625 | 0.250 (≈ 0.491 µM)
11 | COc1ccc2ncc(Cl)c(C(O)CC[C@@H]3CCN(C4CC(c5ccccc5)C4)C[C@@H]3C(=O)O)c2c1 (stereo partly drawn) [Example 212, (3R,4R)-4-[3-(3-chloro-6-methoxyquinolin-4-yl)-3-hydroxypropyl]-1-(3-phenylcyclobutyl)piperidine-3-carboxylic acid] | – | – | – | – | – | <0.0625 | <0.0625 | <0.0625 | <0.0625 | 2.00 (≈ 3.93 µM)
12 | COc1ccc2ncc(Cl)c(C(O)CC[C@@H]3CCN(C4CC(c5c(F)cccc5F)C4)C[C@@H]3C(=O)O)c2c1 (stereo partly drawn) [Example 213, (3R,4R)-4-[3-(3-chloro-6-methoxyquinolin-4-yl)-3-hydroxypropyl]-1-[3-(2,6-difluorophenyl)cyclobutyl]piperidine-3-carboxylic acid] | – | – | – | – | – | <0.0625 | <0.0625 | <0.0625 | <0.0625 | 0.500 (≈ 0.917 µM)
13 | COc1ccc2ncc(Cl)c(C(O)CC[C@@H]3CCN(C4CC(c5c(F)cccc5F)C4)C[C@@H]3C(=O)O)c2c1 (stereo partly drawn) [Example 214, (3R,4R)-4-[3-(3-chloro-6-methoxyquinolin-4-yl)-3-hydroxypropyl]-1-[3-(2,6-difluorophenyl)cyclobutyl]piperidine-3-carboxylic acid] | – | – | – | – | – | <0.0625 | <0.0625 | <0.0625 | <0.0625 | 2.00 (≈ 3.67 µM)
14 | COc1ccc(C2CC(N3CC[C@@H](CC[C@H](O)c4ccnc5ccc(OC)cc45)[C@@H](C(=O)O)C3)C2)c(F)c1 (stereo partly drawn) [Example 220, (3R,4R)-1-[3-(2-fluoro-4-methoxyphenyl)cyclobutyl]-4-[(3S)-3-hydroxy-3-(6-methoxyquinolin-4-yl)propyl]piperidine-3-carboxylic acid] | 32 (≈ 61.2 µM) | 16 (≈ 30.6 µM) | 64 (≈ 122 µM) | 32 (≈ 61.2 µM) | > 64 | – | – | – | – | –
15 | COc1ccc2ncc(F)c([C@@H](O)CC[C@@H]3CCN(C4CC(c5cc(F)cc(F)c5)C4)C[C@@H]3C(=O)O)c2c1 (stereo partly drawn) [Example 221, (3R,4R)-1-[3-(3,5-difluorophenyl)cyclobutyl]-4-[(3S)-3-(3-fluoro-6-methoxyquinolin-4-yl)-3-hydroxypropyl] piperidine-3-carboxylic acid] | 0.25 (≈ 0.473 µM) | 0.25 (≈ 0.473 µM) | 1 (≈ 1.89 µM) | 0.25 (≈ 0.473 µM) | 4 (≈ 7.57 µM) | – | – | – | – | –
